Measured values taken from PubChem BioAssay AID1963427 (Molecular Pharmacology Branch, DTP, NCI, 2024).
pIC50: −log10 of the molar value. One block for each compound: values may come before it.

Test system: 317291-083-R-J1-PDC complex spheroid growth
Experiment: Anticancer human tumor 317291-083-R-J1-PDC patient-derived soft tissue sarcoma cell line growth inhibition [Asc]
Details: for pIC50: curve of first compound; for viability, T/C: stronger effect = lower value
Description: Multicellular complex tumor spheroid response to apoptosis pathway targeting inhibitors Alrizomadlin, Pelcitoclax, and Dasminapant in combination with a variety of drugs and investigational agents in selected tumor cell lines
The MDM2 inhibitor alrizomadlin, the Bcl-2/Bcl-xL inhibitor pelcitoclax, and the IAPs inhibitor dasminapant were evaluated both individually and in combination with standard of care and investigational anticancer small molecules within a complex spheroid model of solid tumors. . Complex spheroids include a stromal component modeled by human endothelial cells (HUVEC) and fibroblasts modeled by human mesenchymal stem cells (MSCs). The concentration ranges selected for each drug and investigational agent were based upon clinically achievable concentrations if the clinical Cmax of the agent was known.
Compounds. The drugs and investigational agents: alrizomadlin (APG-115; NSC831270), pelcitoclax (APG-1252; NSC835773), dasminapant (APG-1387;NSC834197), TAK-243 (NSC785004), copanlisib (NSC809693), olaparib (NSC753686), talazoparib (NSC767125), cobimetinib (NSC 768068), eltanexor (KPT-8602, NSC 794443), abemaciclib (NSC 768073), sotorasib (NSC818433), adagrasib (NSC 831453), MRTX-1133 (NSC 836407), Iadademestat (ORY1001, NSC 806812), and RMC-4630 (NSC839698), were obtained from the NCI Developmental Therapeutics Program Chemical Repository. The FDA-approved anticancer drug set is available from the Developmental Therapeutics Program at https://dtp.cancer.gov/organization/dscb/obtaining/available plates.htm. […] The stock solutions were prepared in dimethyl sulfoxide (DMSO, Sigma-Aldrich, St. Louis, MO, cat. D2650) at 800-fold the tested concentration and stored at -70 degrees C prior to their use. All drugs and investigational agents were tested over a range starting from a high concentration at or near the clinical Cmax and decreasing in half-log increments. If the clinical Cmax for an agent had not been determined, the highest concentration tested was 10 microM.
The patient-derived cancer (PDC) cell lines include five colon adenocarcinomas: 186277-243-T-J2-PDC, 616215-338-R-J1-PDC, 439559-082-T-J2-PDC, 463943-066-T-J2-PDC, and 519858-162-T-J1-PDC; three pancreatic carcinomas: 323965-272-R-J2-PDC, 521955-158-R6-J3-PDC, and 521955-158-R2-J5-PDC; two uterine sarcomas: 327498-152-R-J2-PDC and 993429-296-R-J1-PDC; two rhabdomyosarcomas: 755483-174-R-J1-PDC and 772245-204-R-J1-PDC; two soft tissue sarcomas: 126254-015-R-J1-PDC and 494315-158-R-J1-PDC; two malignant fibrous histiocytomas: 317291-083-R-J1-PDC and 596521-263-R-J1-PDC; two breast carcinomas: 171881-019-R-J1-PDC and 885512-296-R-J2-PDC; and one ovarian carcinoma: 6556581-035-R-J-PDC were obtained from the NCI PDMR, (https://pdmr.cancer.gov). The established cell lines HSSY-2 synovial sarcoma (RRID:CVCL 8719), SYO-1 synovial sarcoma (RRID:CVCL_7146), MPNST malignant peripheral neural sheath tumor were obtained from the Sloan Kettering Institute. The following established cell lines were purchased from the American Type Culture Collection (ATCC, Manassas, VA), Sor the received from the NCI repository:, PANC-1 pancreatic carcinoma (CRL-1469, RRID:CVCL_0480), OVCAR-5 ovarian carcinoma (RRID:CVCL_1628), OVCAR-8 ovarian carcinoma (RRID:CVCL_1629), , MCF-7 breast carcinoma (CRL-12584, RRID:CVCL_0031), MDA-MB-231 breast carcinoma (CRL-12532, RRID:CVCL_0062), NCI-H1876 small cell lung carcinoma (CRL-5902, RRID:CVCL_1503), NCI-H510A small cell lung carcinoma (HTB-184, RRID:CVCL_1565), NCI-H1417 (CRL-5869, RRID:CVCL_1469), and NCI-H196 small cell lung carcinoma (CRL-5823, RRID:CVCL_1509). Dr. Peter Houghton (Greehey Children's Cancer Research Institute, University of Texas Health Science Center, San Antonio, TX) provided Rh-18 rhabdomyosarcoma (RRID:CVCL_1659). Pooled donor human umbilical vein endothelial cells (HUVEC, Lonza, cat. CC-2519) and human mesenchymal stem cells (hMSC, Lonza, cat. PT-2501) were purchased from Lonza (Walkersville, MD).
Cell Culture. […]

[1] = second compound 0.0316 µM, first compound 0.00316 µM
[2] = second compound 0.0316 µM, first compound 0.01 µM
[3] = second compound 0.0316 µM, first compound 0.0316 µM
[4] = second compound 0.0316 µM, first compound 0.1 µM
[5] = second compound 0.1 µM, first compound 0.00316 µM
[6] = second compound 0.1 µM, first compound 0.01 µM
[7] = second compound 0.1 µM, first compound 0.0316 µM
[8] = second compound 0.1 µM, first compound 0.1 µM
[9] = second compound 0.316 µM, first compound 0.00316 µM
[10] = second compound 0.316 µM, first compound 0.01 µM
[11] = second compound 0.316 µM, first compound 0.0316 µM
[12] = second compound 0.316 µM, first compound 0.1 µM
[13] = second compound 1 µM, first compound 0.00316 µM
[14] = second compound 1 µM, first compound 0.01 µM
[15] = second compound 1 µM, first compound 0.0316 µM
[16] = second compound 1 µM, first compound 0.1 µM
[17] = second compound 3.16 µM, first compound 0.00316 µM
[18] = second compound 3.16 µM, first compound 0.01 µM
[19] = second compound 3.16 µM, first compound 0.0316 µM
[20] = second compound 3.16 µM, first compound 0.1 µM
[21] = second compound 10 µM, first compound 0.00316 µM
[22] = second compound 10 µM, first compound 0.01 µM
[23] = second compound 10 µM, first compound 0.0316 µM
[24] = second compound 10 µM, first compound 0.1 µM
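Also: compound exposure lasted seven days after spheroids formed for three days.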
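For viability, T/C in this document: 100% = DMSO vehicle control wells.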

pIC50 (second compound 0.0316 µM): < 7.00 | pIC50 (second compound 0.1 µM): < 7.00 | pIC50 (second compound 0.316 µM): 7.09 | pIC50 (second compound 1 µM): 7.30 | pIC50 (second compound 3.16 µM): 7.26 | pIC50 (second compound 10 µM): 7.49
SMILES: Cn1ncnc1[C@H]1c2n[nH]c(=O)c3cc(F)cc(c23)N[C@@H]1c1ccc(F)cc1 + Cc1c(S(C)(=O)=O)c(-c2cc(F)cc(N3CCN(c4ccc(NS(=O)(=O)c5ccc(NC(CCN6CCC(C(=O)OCCCP(=O)(O)O)CC6)CSc6ccccc6)c(S(=O)(=O)C(F)(F)F)c5)cc4)CC3)c2)c(-c2ccc(Cl)cc2)n1C(C)C
viability, T/C (second compound 0.0316 µM, first compound 0.000316 µM): 93.2% | viability, T/C (second compound 0.0316 µM, first compound 0.001 µM): 91.5% | viability, T/C [1]: 78.4% | viability, T/C [2]: 85.6% | viability, T/C [3]: 67.1% | viability, T/C [4]: 56.6% | viability, T/C (second compound 0.1 µM, first compound 0.000316 µM): 91% | viability, T/C (second compound 0.1 µM, first compound 0.001 µM): 90.8% | viability, T/C [5]: 88.1% | viability, T/C [6]: 77.9% | viability, T/C [7]: 64.7% | viability, T/C [8]: 55.5% | viability, T/C (second compound 0.316 µM, first compound 0.000316 µM): 83.2% | viability, T/C (second compound 0.316 µM, first compound 0.001 µM): 74.1% | viability, T/C [9]: 85.5% | viability, T/C [10]: 66.8% | viability, T/C [11]: 63% | viability, T/C [12]: 47.1% | viability, T/C (second compound 1 µM, first compound 0.000316 µM): 78.4% | viability, T/C (second compound 1 µM, first compound 0.001 µM): 77.3% | viability, T/C [13]: 71.2% | viability, T/C [14]: 55.5% | viability, T/C [15]: 63.2% | viability, T/C [16]: 40.4% | viability, T/C (second compound 3.16 µM, first compound 0.000316 µM): 81.5% | viability, T/C (second compound 3.16 µM, first compound 0.001 µM): 65.9% | viability, T/C [17]: 72.3% | viability, T/C [18]: 60.6% | viability, T/C [19]: 57.5% | viability, T/C [20]: 43.4% | viability, T/C (second compound 10 µM, first compound 0.000316 µM): 99.5% | viability, T/C (second compound 10 µM, first compound 0.001 µM): 92.9% | viability, T/C [21]: 71.5% | viability, T/C [22]: 66.2% | viability, T/C [23]: 48.3% | viability, T/C [24]: 41.9%

pIC50 (second compound 0.0316 µM): 6.71 | pIC50 (second compound 0.1 µM): 6.86 | pIC50 (second compound 0.316 µM): 6.75 | pIC50 (second compound 1 µM): 7.21 | pIC50 (second compound 3.16 µM): 7.08 | pIC50 (second compound 10 µM): 6.83
SMILES: CNC(C)C(=O)NC1CN(S(=O)(=O)c2cccc(S(=O)(=O)N3CCC4CCC(C(=O)NC(c5ccccc5)c5ccccc5)N4C(=O)C(NC(=O)C(C)NC)C3)c2)CCC2CCC(C(=O)NC(c3ccccc3)c3ccccc3)N2C1=O (centres undefined) + Cc1c(S(C)(=O)=O)c(-c2cc(F)cc(N3CCN(c4ccc(NS(=O)(=O)c5ccc(NC(CCN6CCC(C(=O)OCCCP(=O)(O)O)CC6)CSc6ccccc6)c(S(=O)(=O)C(F)(F)F)c5)cc4)CC3)c2)c(-c2ccc(Cl)cc2)n1C(C)C
viability, T/C [1]: 121% | viability, T/C [2]: 65.5% | viability, T/C [3]: 82.7% | viability, T/C [4]: 55.4% | viability, T/C (second compound 0.0316 µM, first compound 0.316 µM): 53.3% | viability, T/C (second compound 0.0316 µM, first compound 1 µM): 32.9% | viability, T/C [5]: 88.3% | viability, T/C [6]: 80.2% | viability, T/C [7]: 60.4% | viability, T/C [8]: 62.2% | viability, T/C (second compound 0.1 µM, first compound 0.316 µM): 35.1% | viability, T/C (second compound 0.1 µM, first compound 1 µM): 25.1% | viability, T/C [9]: 82.7% | viability, T/C [10]: 67.4% | viability, T/C [11]: 74.5% | viability, T/C [12]: 60.5% | viability, T/C (second compound 0.316 µM, first compound 0.316 µM): 38.8% | viability, T/C (second compound 0.316 µM, first compound 1 µM): 23.8% | viability, T/C [13]: 70.7% | viability, T/C [14]: 61.4% | viability, T/C [15]: 55% | viability, T/C [16]: 44.5% | viability, T/C (second compound 1 µM, first compound 0.316 µM): 41.3% | viability, T/C (second compound 1 µM, first compound 1 µM): 25.3% | viability, T/C [17]: 81% | viability, T/C [18]: 53.1% | viability, T/C [19]: 65.1% | viability, T/C [20]: 50.9% | viability, T/C (second compound 3.16 µM, first compound 0.316 µM): 36.6% | viability, T/C (second compound 3.16 µM, first compound 1 µM): 22.1% | viability, T/C [21]: 77.5% | viability, T/C [22]: 78.6% | viability, T/C [23]: 67.1% | viability, T/C [24]: 60% | viability, T/C (second compound 10 µM, first compound 0.316 µM): 34.9% | viability, T/C (second compound 10 µM, first compound 1 µM): 24.8%
